Assay results: publication PMC10139140, “Synthesis of Novel 2-(Cyclopentylamino)thiazol-4(5H)-one Derivatives with Potential Anticancer, Antioxidant, and 11β-HSD Inhibitory Activities” (International Journal of Molecular Sciences, 2023)

Columns and labels:
glioma (U-118 MG) = assay: MTS metabolic activity assay, U-118 MG cells; format: cell-based; settings: 72 h; for viability at 10 µM / viability at 20 µM / viability at 50 µM / viability at 100 µM / viability at 200 µM / viability at 300 µM / viability at 500 µM: Homo sapiens, U-118-MG, U118-MG, read-out: Cell metabolic activity (MTS), % of untreated control
Method: (§1) The BJ (CRL-2522), Caco-2 (HTB-37), PANC-1 (CRL-1469), U-118 MG (HTB-15), SK-MEL-30 (ACC 151), and MDA-MB-231 (HTB-26) cell lines were purchased from ATCC (Manassas, VA, USA) or DSMZ (Braunschweig, GERMANY). Cells were cultured in accordance with manufacturers' recommendations in a DMEM, MEM, or RPMI-1640 (Sigma, Saint Louis, MO, USA; Gibco, Waltham, MA, USA), supplemented with 10% FBS, except for Caco-2 (20%) (Thermo Fisher Scientific, Waltham, MA, USA) and 1% antibiotic mix solution (penicillin, streptomycin; Thermo Fisher Scientific, Waltham, MA, USA) in a humidified atmosphere with 5% CO2 at 37 °C. All cell lines were cultured in T75 cell culture flasks or cell culture dishes to reach 80–90% confluency and seeded at a standard density of 5 × 10^3 cells/0.32 cm^2, except for BJ cells at 2 × 10^3 cells/0.32 cm^2.
(§2) The MTS ((MTS: 3-(4,5-dimethylthiazol-2-yl)-5-(3-carboxymethoxyphenyl)-2-(4-sulfophenyl)-2H-tetrazolium)) assay was performed following previously reported method. Briefly, cells were seeded at a standard density into 96-well flat-bottom plates and incubated for 24 h, followed by the treatment. The various concentrations of compounds were prepared and treated for the next 72 h. MTS solution was added for 3h and incubated at standard conditions, protected from light. Finally, the absorbance was read at […] and 620 nm wavelengths using a Synergy H1 microplate reader (BioTek, Santa Clara, CA, USA). The results are presented as %, while untreated control cells were considered 100%.

[1] = tested on: skin melanoma (SK-MEL-30); assay: MTS metabolic activity assay, SK-MEL-30 cells; format: cell-based; settings: Homo sapiens, 72 h, read-out: Cell metabolic activity (MTS), % of untreated control; for viability at 10 µM: SK-MEL-30, 10 µM; for viability at 20 µM: SK-MEL-30, 20 µM; for viability at 50 µM: SK-MEL-30, 50 µM; for viability at 100 µM: SK-MEL-30, 100 µM; for viability at 200 µM: SK-MEL-30, 200 µM; for viability at 300 µM: SK-MEL-30, 300 µM; for viability at 500 µM: SK-MEL-30, 500 µM
Method: as §1, §2

[2] = tested on: human colon carcinoma (Caco-2); assay: MTS metabolic activity assay, Caco-2 cells; format: cell-based; settings: Homo sapiens, 72 h, read-out: Cell metabolic activity (MTS), % of untreated control; for viability at 10 µM: Caco-2, 10 µM; for viability at 20 µM: Caco-2, 20 µM; for viability at 50 µM: Caco-2, 50 µM; for viability at 100 µM: Caco-2, 100 µM; for viability at 200 µM: Caco-2, 200 µM; for viability at 300 µM: Caco-2, 300 µM; for viability at 500 µM: Caco-2, 500 µM
Method: as §1, §2

[3] = tested on: human pancreatic carcinoma (PANC-1); assay: MTS metabolic activity assay, PANC-1 cells; format: cell-based; settings: Homo sapiens, 72 h, read-out: Cell metabolic activity (MTS), % of untreated control; for viability at 10 µM: PANC-1, 10 µM; for viability at 20 µM: PANC-1, 20 µM; for viability at 50 µM: PANC-1, 50 µM; for viability at 100 µM: PANC-1, 100 µM; for viability at 200 µM: PANC-1, 200 µM; for viability at 300 µM: PANC-1, 300 µM; for viability at 500 µM: PANC-1, 500 µM
Method: as §1, §2

11β-HSD2 = molecular target: T1, 11β-HSD2 (Homo sapiens, UniProt P80365); assay: Inhibition of 11β-HSD2 (cortisol to cortisone, human microsomes, cortisol ELISA); format: biochemical; settings: 2.5 h, 37 °C
T1 construct: Human liver microsomes were used as a source of 11β-HSD2 enzyme; tissue XenoTech Lot No. 1710160; host or cells: human kidney microsomes, mixed gender (method text says human liver microsomes)
T1 sequence (P80365 1-405): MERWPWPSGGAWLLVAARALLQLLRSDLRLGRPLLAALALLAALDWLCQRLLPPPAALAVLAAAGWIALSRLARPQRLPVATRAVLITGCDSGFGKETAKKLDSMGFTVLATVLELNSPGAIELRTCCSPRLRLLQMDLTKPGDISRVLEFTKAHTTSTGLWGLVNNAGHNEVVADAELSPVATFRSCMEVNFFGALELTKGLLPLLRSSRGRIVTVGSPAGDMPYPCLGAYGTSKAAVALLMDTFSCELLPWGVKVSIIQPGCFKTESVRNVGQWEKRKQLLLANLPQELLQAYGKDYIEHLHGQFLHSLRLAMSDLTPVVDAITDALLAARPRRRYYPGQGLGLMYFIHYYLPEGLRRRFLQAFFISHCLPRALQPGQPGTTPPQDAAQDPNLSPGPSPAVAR
Method: The resulting solution with a final volume of 100 µL was incubated for 2.5 h at 37 °C. […] The level of unreacted cortisol was measured by a commercially available ELISA kit.

[4] = tested on: human breast carcinoma (MDA-MB-231); assay: MTS metabolic activity assay, MDA-MB-231 cells; format: cell-based; settings: Homo sapiens, 72 h, read-out: Cell metabolic activity (MTS), % of untreated control; for viability at 10 µM: MDA-MB-231, 10 µM; for viability at 20 µM: MDA-MB-231, 20 µM; for viability at 50 µM: MDA-MB-231, 50 µM; for viability at 100 µM: MDA-MB-231, 100 µM; for viability at 200 µM: MDA-MB-231, 200 µM; for viability at 300 µM: MDA-MB-231, 300 µM; for viability at 500 µM: MDA-MB-231, 500 µM
Method: as §1, §2

11β-HSD1 = molecular target: T2, 11β-HSD1 (Homo sapiens, UniProt P28845); assay: Inhibition of 11β-HSD1 (cortisone to cortisol, human liver microsomes, cortisol ELISA); format: biochemical; settings: for inhibition at 10 µM: 2.5 h, 37 °C
T2 construct: Human liver microsomes were used as a source of 11β-HSD1 enzyme; tissue XenoTech Lot No. 1410013; host or cells: pooled human liver microsomes, mixed gender
T2 sequence (P28845 whole entry): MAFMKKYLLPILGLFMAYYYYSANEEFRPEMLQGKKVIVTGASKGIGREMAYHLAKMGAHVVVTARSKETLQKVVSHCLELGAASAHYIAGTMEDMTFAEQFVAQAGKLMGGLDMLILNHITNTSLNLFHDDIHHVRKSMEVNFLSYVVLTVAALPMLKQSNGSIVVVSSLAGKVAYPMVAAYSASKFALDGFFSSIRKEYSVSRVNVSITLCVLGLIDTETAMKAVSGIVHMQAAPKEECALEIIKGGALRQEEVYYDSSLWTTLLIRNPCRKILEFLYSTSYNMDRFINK
In short: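 Human liver microsomal conversion of cortisone to cortisol, incubated 2.5 h at 37 °C and stopped with 18β-glycyrrhetinic acid. Cortisol was quantified by ELISA against inhibitor-free controls.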

BJ cells = assay: MTS metabolic activity assay, BJ cells; format: cell-based; settings: Homo sapiens, 72 h, read-out: Cell metabolic activity (MTS), % of untreated control
Method: as §1, §2

CC(C)C1SC(NC2CCCC2)=NC1=O (stereo not shown) [Compound 3d, 2-(cyclopentylamino)-5-isopropylthiazol-4(5H)-one]
viability at 10 µM (glioma (U-118 MG)): 118%
viability at 20 µM (glioma (U-118 MG)): 111%
viability at 50 µM (glioma (U-118 MG)): 114%
viability at 100 µM (glioma (U-118 MG)): 112%
viability at 200 µM (glioma (U-118 MG)): 114%
viability at 300 µM (glioma (U-118 MG)): 115%
viability at 500 µM (glioma (U-118 MG)): 120%
highest increase in proliferation (cell metabolic activity) (glioma (U-118 MG); U-118 MG, range given for the named substances together): 115 to 144%
viability at 10 µM [1]: 97.2%
viability at 20 µM [1]: 97.1%
viability at 50 µM [1]: 97.7%
viability at 100 µM [1]: 102%
viability at 200 µM [1]: 92.3%
viability at 300 µM [1]: 78.2%
viability at 500 µM [1]: 59.4%
viability at 10 µM [2]: 88.8%
viability at 20 µM [2]: 82.8%
viability at 50 µM [2]: 90.8%
viability at 100 µM [2]: 83.1%
viability at 200 µM [2]: 84.8%
viability at 300 µM [2]: 85.3%
viability at 500 µM [2]: 70.1%
viability at 10 µM [3]: 107%
viability at 20 µM [3]: 103%
viability at 50 µM [3]: 105%
viability at 100 µM [3]: 116%
viability at 200 µM [3]: 113%
viability at 300 µM [3]: 119%
viability at 500 µM [3]: 118%
inhibition at 10 µM (11β-HSD2): 38.6 ± 3.69%
viability at 10 µM [4]: 92.8%
viability at 20 µM [4]: 91.2%
viability at 50 µM [4]: 95.5%
viability at 100 µM [4]: 94.4%
viability at 200 µM [4]: 86.6%
viability at 300 µM [4]: 81.8%
viability at 500 µM [4]: 57.6%
IC50 (11β-HSD1): 460 ± 70 nM
inhibition at 10 µM (11β-HSD1): 82.9 ± 2.62%
viability at 10 µM (BJ cells): 109%
viability at 20 µM (BJ cells): 106%
viability at 50 µM (BJ cells): 109%
viability at 100 µM (BJ cells): 110%
viability at 200 µM (BJ cells): 116%
viability at 300 µM (BJ cells): 118%
viability at 500 µM (BJ cells): 118%

CCC1SC(NC2CCCC2)=NC1=O (stereo not shown) [Compound 3b, 2-(cyclopentylamino)-5-ethylthiazol-4(5H)-one]
viability at 10 µM (glioma (U-118 MG)): 110%
viability at 20 µM (glioma (U-118 MG)): 107%
viability at 50 µM (glioma (U-118 MG)): 111%
viability at 100 µM (glioma (U-118 MG)): 113%
viability at 200 µM (glioma (U-118 MG)): 113%
viability at 300 µM (glioma (U-118 MG)): 112%
viability at 500 µM (glioma (U-118 MG)): 107%
viability at 10 µM [1]: 93.7%
viability at 20 µM [1]: 99%
viability at 50 µM [1]: 97.4%
viability at 100 µM [1]: 105%
viability at 200 µM [1]: 101%
viability at 300 µM [1]: 98.4%
viability at 500 µM [1]: 93.8%
viability at 10 µM [2]: 87.9%
viability at 20 µM [2]: 87.3%
viability at 50 µM [2]: 84.4%
viability at 100 µM [2]: 79.8%
viability at 200 µM [2]: 77%
viability at 300 µM [2]: 73.2%
viability at 500 µM [2]: 66.1%
viability at 10 µM [3]: 103%
viability at 20 µM [3]: 102%
viability at 50 µM [3]: 107%
viability at 100 µM [3]: 112%
viability at 200 µM [3]: 113%
viability at 300 µM [3]: 110%
viability at 500 µM [3]: 105%
inhibition at 10 µM (11β-HSD2): 39.7 ± 0.07%
viability at 10 µM [4]: 97.5%
viability at 20 µM [4]: 97.8%
viability at 50 µM [4]: 94.5%
viability at 100 µM [4]: 95.3%
viability at 200 µM [4]: 86.5%
viability at 300 µM [4]: 75.3%
viability at 500 µM [4]: 57.4%
IC50 (11β-HSD1): > 10000 nM
inhibition at 10 µM (11β-HSD1): 21.3 ± 3.29%
viability at 10 µM (BJ cells): 97.9%
viability at 20 µM (BJ cells): 98.5%
viability at 50 µM (BJ cells): 102%
viability at 100 µM (BJ cells): 108%
viability at 200 µM (BJ cells): 110%
viability at 300 µM (BJ cells): 112%
viability at 500 µM (BJ cells): 111%
